Legend:
EAE = experiment: Experimental Allergic Encephalomyelitis (EAE) model of MS; assay type: in vivo, mice; conditions: for incidence Value: mice, 10/group; for GMS % inhibition (first GMS column) / GMS % inhibition (second GMS column) / incidence % inhibition: vs methyl cellulose control; for GMS Value (first GMS column) / GMS Value (second GMS column): EAE score scale 0-5
MPP+ treated PC-12 cells = experiment: Effect on MPP+ treated PC-12 cells (neuroprotection, LDH release); assay type: cell-based; conditions: 1000 μM MPP+ for 48 hours, LDH in medium
Experimental: Pheochromocytoma PC-12 cells (at a density of 200,000 cells/well) were cultured for 10 days with 50 ng/ml NGF on 6-well culture dishes coated with […] rat tail type I collagen (BD Biosciences, Bedford, Mass., USA). At the day of the experiment the morphological differentiation of the cells was very advanced (typical network formation). In order to initiate the neurotoxic insult, cells were treated with 1000 μM of 1-methyl-4-phenylpyrdinium (MPP+) iodide salt from RBI chemicals (Natick, Mass., USA) for 48 hours in the absence or presence of tested compounds, added to the culture 30 min. prior to MPP+ administration. […] At the cellular level, neuronal cell death is induced by several mechanisms including pathological concentrations of intracellular calcium and free oxygen radicals. Therefore the positive controls in this experiment were nimodipine at the concentration of 10 μM (RBI chemicals, Natick, Mass., USA) (a potent L-type calcium channel blocker) and 4-hydroxy-2,2,6,6-tetramethylpiperidyne-1-oxyl (tempol, a potent antioxidant) at a concentration of 500 μM, (Sigma, St Louis, Mo., USA). At the end of the experiment cell death was measured by assessing Lactate dehydrogenase (LDH) activity in the medium. High medium LDH indicated increased neuronal death that promoted leakage of this cytoplasmic enzyme into the medium.
Measuring lactate dehydrogenase activity in the medium was performed using a Sigma Diagnostics LD-L reagent. LDH activity was spectrophotometrically monitored at 340 nm by following the rate of conversion of oxidized nicotinamide adenine dinucleotide (NAD^+) to the reduced form of (NADH). Total LDH of each culture (extracellular+intracellular) was obtained by measuring LDH in the medium after freezing and thawing of the cultures. Basal LDH release was measured in untreated cultures (no MPP+). The neurotoxic effect was calculated according to the formula: (LDHs−LDHb)/LDHt×100. (s=sample; b=basal; t=total). Each compound was tested in sixplicate.
To calculate the percentage of neuroprotection for each set of sixplicate experiments, the average neurotoxicity was calculated and the following calculation was undertaken: 100−([neurotoxicity test compound/neurotoxicity MPP^+]×100).

[1] = 2 × 10 mg/kg oral (twice a day)
[2] = Dose 1 μM, NGF-differentiated PC-12 cells
[3] = Dose 10 μM, NGF-differentiated PC-12 cells

Compound | Mean duration (EAE; 2 × 5 mg/kg oral) [days] | incidence Value (EAE; 2 × 5 mg/kg oral (twice a day)) | GMS % inhibition (first GMS column) (EAE; 2 × 5 mg/kg oral) [%] | GMS % inhibition (second GMS column) (EAE; 2 × 5 mg/kg oral) [%] | incidence % inhibition (EAE; 2 × 5 mg/kg oral) [%] | GMS Value (first GMS column) (EAE; 2 × 5 mg/kg oral) | GMS Value (second GMS column) (EAE; 2 × 5 mg/kg oral) | Mean duration (EAE; 2 × 10 mg/kg oral) [days] | incidence Value (EAE; [1]) | GMS % inhibition (first GMS column) (EAE; 2 × 10 mg/kg oral) [%] | GMS % inhibition (second GMS column) (EAE; 2 × 10 mg/kg oral) [%] | incidence % inhibition (EAE; 2 × 10 mg/kg oral) [%] | GMS Value (first GMS column) (EAE; 2 × 10 mg/kg oral) | GMS Value (second GMS column) (EAE; 2 × 10 mg/kg oral) | % neuroprotection (MPP+ treated PC-12 cells; [2]) | % neuroprotection (MPP+ treated PC-12 cells; [3]) | % neuroprotection (MPP+ treated PC-12 cells; Dose 1000 μM (positive control)) [%]
C#CCNC1CCc2cc3sc(N)nc3cc21.Cl.Cl (stereo not drawn) [Compound A-1, N5-prop-2-ynyl-6,7-dihydro-5H-1-thia-3-aza-s-indacene-2,5-diamine diHCl] | 3.0 ± 6.3 | 2/10 | 40.0 | 33.3 | 50.0 | 0.6 ± 1.3 | 0.4 ± 0.8 | 1.8 ± 5.7 | 1/10 | 70.0 | 66.7 | 75.0 | 0.3 ± 0.9 | 0.2 ± 0.6 | 50% | 60% | –
C#CCNC1CCc2ccc3nc(N)sc3c21.Cl.Cl (stereo not drawn) [Compound B-1, N8-prop-2-ynyl-7,8-dihydro-6H-1-thia-3-aza-as-indacene-2,8-diamine diHCl] | 0.1 ± 0.3 | 1/10 | 90.0 | 99.2 | 75.0 | 0.1 ± 0.3 | 0.005 ± 0.02 | 3.3 ± 7.0 | 2/10 | 60.0 | 50.0 | 50.0 | 0.4 ± 1.0 | 0.3 ± 0.8 | 60-87% | 58-81% | –
CC1(C)CC(O)CC(C)(C)N1[O] [Tempol, 4-hydroxy-2,2,6,6-tetramethylpiperidyne-1-oxyl, reference compound] | – | – | – | – | – | – | – | – | – | – | – | – | – | – | – | – | 100
